Structures are written as SMILES.

A short description of one data set: in vivo. Particulars: male, Sprague-Dawley, rat, oral.
For data set [1], the system named is conditioned avoidance responding in male Wistar rats. Kind of data set: Conditioned avoidance response (CAR). The format is in vivo, rat. How it is done:
The drug was administered, per os (po), by gavage to rats in a volume of 2 ml/kg body weight. Oral dosing solutions were prepared fresh daily. […] The pH of the dosing solution was adjusted to ~pH 5.5 by dropwise addition of 0.1 N NaOH in saline and volume adjusted by addition of saline in preparation for intraperitoneal (ip) dosing. […] Control treatments were always the vehicle solutions of the corresponding drugs.
Avoidance behavior, escape behavior, escape failures, and inter-trial crosses were recorded, as described here: (1) avoidance (response to CS within 10 s); (2) escape (response to CS + UCS); and (3) escape failure (if the rat was unable to respond to the shock by moving into the opposite compartment within 50 s, the trial was terminated). The inter-trial interval (end of trial to start of new trial) varied randomly between 20 and 40 s. Rats were trained for five consecutive days and adapted to the shuttle box 5 min before each training session. Training sessions consisted of about 20 trials, randomly distributed over 15 min. Only rats that performed at least 90 % avoidance on the last day of training were included in the experiments. All subsequent test sessions were preceded by a pre-test to verify continued performance in the paradigm. Pre-tests and test sessions consisted of approximately ten trials, each randomly distributed over a 7.5-min period. […] Experimental days were always separated by at least two non-experimental days. Experimental tests were separated by at least 2 days to insure drug washout.
Results from the conditioned avoidance responding (CAR) protocol were analyzed using non-parametric procedures.

Description for in vivo: Standard methods of tissue extraction were used. […] Brain homogenate or plasma was then extracted with two volumes of acetonitrile and clarified by centrifugation at 12,000g for 20 min. […] Brain and plasma concentration and ratio (brain/plasma) were calculated for each compound.

On to `Cc1nc2n(c(=O)c1CCN1CCC(c3noc4cc(F)ccc34)CC1)CCCC2O` (centres unmarked) [Paliperidone, paliperidone], for which the concentration at 1 h in “in vivo” (brain) was found to be 15 ± 5 ng/mL; in the data set “in vivo” (plasma), 197 ± 91 ng/mL; in the data set “in vivo” (plasma, plasma concentration, risperidone 2 mg/kg po plus vehicle, 1 h, ± SD, n = 3) it was 162 ± 70 ng/mL.

Consider `Cc1nc2n(c(=O)c1CCN1CCC(c3noc4cc(F)ccc34)CC1)CCCC2` [Risperidone, reference compound], for which the “effect on percent avoidances” value in data set [1] (0.2 mg/kg i.p., sub-threshold dose) is on record as “no effect”. For the same compound, the “effect on avoidance behaviors” value in data set [1] (0.8 mg/kg i.p., effective dose) is on record as “significant inhibition”.

These data come from publication PMC4980415 (Psychopharmacology, 2016).
